Reference: patent publication US10508104B2, “6-hydroxy-5-(phenyl/heteroarylsulfonyl)pyrimidin-4(1H)-one as APJ agonists” (Bristol-Myers Squibb Company, priority 2016, dated 2019)
Where two headings read alike, the source gives them in different places.

Molecular target: human APJ receptor (Homo sapiens (Human), UniProt P35414)
Experiment: Intracellular cAMP accumulation assay (APJ hcAMP, HTRF)
Format: cell-based
Conditions: read-out: Human APJ cAMP EC50 Potency range
In short: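 HEK293 cells stably expressing human APJ, 5,000 per well, incubated 30 min at rt with compound, […] and 2 μM forskolin. cAMP measured by HTRF against a cAMP standard curve as inhibition of forskolin-driven production. EC50 from variable-slope sigmoidal fit.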

[1] = HEK293 cells stably expressing human APJ receptor, inhibition of forskolin-mediated cAMP production

human APJ receptor, sequence (P35414 whole entry): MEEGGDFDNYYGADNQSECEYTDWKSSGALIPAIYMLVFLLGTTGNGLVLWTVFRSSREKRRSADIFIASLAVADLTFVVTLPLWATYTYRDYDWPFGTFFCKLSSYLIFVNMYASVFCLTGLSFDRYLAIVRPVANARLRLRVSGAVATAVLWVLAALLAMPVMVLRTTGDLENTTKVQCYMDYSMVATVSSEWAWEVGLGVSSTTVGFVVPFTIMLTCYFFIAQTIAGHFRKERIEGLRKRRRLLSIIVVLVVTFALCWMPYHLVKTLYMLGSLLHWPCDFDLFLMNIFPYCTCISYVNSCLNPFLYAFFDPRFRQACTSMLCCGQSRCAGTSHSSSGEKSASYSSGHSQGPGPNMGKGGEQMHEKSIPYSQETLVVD

Row | SMILES | EC50 [1] | EC50 (human APJ, cAMP accumulation)
1 | COc1cccc(OC)c1-n1c(-c2ccc(F)cc2)nc(=O)c(S(=O)(=O)c2ccc(Br)cc2)c1O [Example 269, 5-((4-Bromophenyl)sulfonyl)-1-(2,6-dimethoxyphenyl)-2-(4-fluorophenyl)-6-hydroxypyrimidin-4(1H)-one] | 100 to 300 nM | 
2 | COc1cccc(OC)c1-n1c(-c2cncc(C)c2)nc(=O)c(S(=O)(=O)c2ccc(Br)cc2)c1O [Example 270, 5-(4-bromobenzenesulfonyl)-1-(2,6-dimethoxyphenyl)-6-hydroxy-2-(5-methylpyridin-3-yl)-1,4-dihydropyrimidin-4-one] |  | 10 to 100 nM
3 | COc1cccc(OC)c1-n1c(-c2ccc(F)cc2)nc(=O)c(S(=O)(=O)c2ccc(-c3cccnc3C)cc2)c1O [Example 271, 1-(2,6-Dimethoxyphenyl)-2-(4-fluorophenyl)-6-hydroxy-5-((4-(2-methylpyridin-3-yl)phenyl)sulfonyl)pyrimidin-4(1H)-one] | 0.01 to 10 nM | 
4 | COc1cccc(OC)c1-n1c(-c2cncc(C)c2)nc(=O)c(S(=O)(=O)c2ccc(-c3cccnc3C)cc2)c1O [Example 272, 1-(2,6-dimethoxyphenyl)-6-hydroxy-2-(5-methylpyridin-3-yl)-5-[4-(2-methylpyridin-3-yl)benzenesulfonyl]-1,4-dihydropyrimidin-4-one] |  | 0.01 to 10 nM
5 | COc1cccc(OC)c1-n1c(-c2ccc(F)cc2)nc(=O)c(S(=O)(=O)c2ccc(-c3ccncc3C)cc2)c1O [Example 273] |  | 0.01 to 10 nM
6 | COc1cccc(OC)c1-n1c(-c2cncc(C)c2)nc(=O)c(S(=O)(=O)c2ccc(-c3ccnc(F)c3C)cc2)c1O [Example 274, 1-(2,6-dimethoxyphenyl)-5-[4-(2-fluoro-3-methylpyridin-4-yl)benzenesulfonyl]-6-hydroxy-2-(5-methylpyridin-3-yl)-1,4-dihydropyrimidin-4-one] |  | 0.01 to 10 nM
7 | COc1cccc(OC)c1-n1c(-c2ccc(F)cc2)nc(=O)c(S(=O)(=O)c2ccc(-n3cc(Cl)ccc3=O)cc2)c1O [Example 275, 5-((4-(5-Chloro-2-oxopyridin-1 (2H)-yl)phenyl)sulfonyl)-1-(2,6-dimethoxyphenyl)-2-(4-fluorophenyl)-6-hydroxypyrimidin-4(1H)-one] | 0.01 to 10 nM | 
8 | COc1cccc(OC)c1-n1c(-c2cncc(C)c2)nc(=O)c(S(=O)(=O)c2ccc(-n3cc(Cl)ccc3=O)cc2)c1O [Example 276, 5-[4-(5-chloro-2-oxo-1,2-dihydropyridin-1-yl)benzenesulfonyl]-1-(2,6-dimethoxyphenyl)-6-hydroxy-2-(5-methylpyridin-3-yl)-1,4-dihydropyrimidin-4-one] |  | 0.01 to 10 nM
9 | COc1cccc(OC)c1-n1c(-c2cncc(C)c2)nc(=O)c(S(=O)(=O)c2ccc(C3CC3)cc2)c1O [Example 277, 5-(4-cyclopropylbenzene-sulfonyl)-1-(2,6-dimethoxyphenyl)-6-hydroxy-2-(5-methylpyridin-3-yl)-1,4-dihydropyrimidin-4-one] |  | 0.01 to 10 nM
10 | COc1cccc(OC)c1-n1c(-c2ccc(F)cc2)nc(=O)c(S(=O)(=O)c2ccc(C3CC3)cc2)c1O [Example 278, 5-((4-Cyclopropylphenyl)sulfonyl)-1-(2,6-dimethoxyphenyl)-2-(4-fluorophenyl)-6-hydroxypyrimidin-4(1H)-one] | 10 to 100 nM | 
11 | CC[C@@H](c1ccccc1)n1c(C2CCCC2)nc(=O)c(S(=O)(=O)c2ccc(Br)cc2)c1O [Example 279, (S)-5-((4-Bromophenyl)sulfonyl)-2-cyclopentyl-6-hydroxy-1-(1-phenylpropyl)pyrimidin-4(1H)-one] | 10 to 100 nM | 
12 | CC[C@@H](c1ccccc1)n1c(C2CCCC2)nc(=O)c(S(=O)(=O)c2ccc(-c3ccc(F)nc3)cc2)c1O [Example 280, 2-cyclopentyl-5-[4-(6-fluoropyridin-3-yl)benzenesulfonyl]-6-hydroxy-1-[(1S)-1-phenylpropyl]-1,4-dihydropyrimidin-4-one] |  | 0.01 to 10 nM
13 | CC[C@@H](c1ccccc1)n1c(C2CCCC2)nc(=O)c(S(=O)(=O)c2ccc(-c3cncc(C)c3)cc2)c1O [Example 281, 2-cyclopentyl-6-hydroxy-5-[4-(5-methylpyridin-3-yl)benzenesulfonyl]-1-[(1S)-1-phenylpropyl]-1,4-dihydropyrimidin-4-one] |  | 0.01 to 10 nM
14 | CC[C@@H](c1ccccc1)n1c(C2CCCC2)nc(=O)c(S(=O)(=O)c2ccc(-c3ccncc3C)cc2)c1O [Example 282, 2-cyclopentyl-6-hydroxy-5-[4-(3-methylpyridin-4-yl)benzenesulfonyl]-1-[(1S)-1-phenylpropyl] 1,4-dihydropyrimidin-4-one] |  | 0.01 to 10 nM
15 | CC[C@@H](c1ccccc1)n1c(C2CCCC2)nc(=O)c(S(=O)(=O)c2ccc(-c3cncc(F)c3)cc2)c1O [Example 283, 2-cyclopentyl-5-[4-(5-fluoropyridin-3-yl)benzenesulfonyl]-6-hydroxy-1-[(1S)-1-phenylpropyl]-1,4-dihydropyrimidin-4-one] |  | 0.01 to 10 nM
16 | CCCCc1nc(=O)c(S(=O)(=O)c2ccc(Br)cc2)c(O)n1[C@@H](CC)c1ccccc1 [Example 284, 5-(4-bromobenzenesulfonyl)-2-butyl-6-hydroxy-1-[(1S)-1-phenylpropyl]-1,4-dihydropyrimidin-4-one] |  | 0.01 to 10 nM
17 | CCOCc1nc(=O)c(S(=O)(=O)c2ccc(Br)cc2)c(O)n1[C@@H](CC)c1ccccc1 [Example 285, 5-(4-bromobenzenesulfonyl)-2-(ethoxymethyl)-6-hydroxy-1-[(1S)-1-phenylpropyl]-1,4-dihydropyrimidin-4-one] |  | 100 to 300 nM
18 | CC[C@@H](c1ccccc1)n1c(COC(C)C)nc(=O)c(S(=O)(=O)c2ccc(Br)cc2)c1O [Example 286, 5-(4-bromobenzenesulfonyl)-6-hydroxy-1-[(1S)-1-phenylpropyl]-2-[(propan-2-yloxy)methyl]-1,4-dihydropyrimidin-4-one] |  | 100 to 300 nM
19 | CCCCc1nc(=O)c(S(=O)(=O)c2ccc(-n3ccccc3=O)cc2)c(O)n1[C@@H](CC)c1ccccc1 [Example 287, 2-butyl-6-hydroxy-5-[4-(2-oxo-1,2-dihydropyridin-1-yl)benzenesulfonyl]-1-[(1S)-1-phenylpropyl]-1,4-dihydropyrimidin-4-one] |  | 0.01 to 10 nM
20 | CCCCc1nc(=O)c(S(=O)(=O)c2ccc(-n3cc(Cl)ccc3=O)cc2)c(O)n1[C@@H](COC)c1ccccc1 [Example 288, 2-butyl-5-[4-(5-chloro-2-oxo-1,2-dihydropyridin-1-yl)benzenesulfonyl]-6-hydroxy-1-[(1R)-2-methoxy-1-phenylethyl]-1,4-dihydropyrimidin-4-one] |  | 0.01 to 10 nM
21 | CCCCc1nc(=O)c(S(=O)(=O)c2ccc(-c3ccc(F)nc3)cc2)c(O)n1[C@@H](CC)c1ccccc1 [Example 289, 2-butyl-5-[4-(6-fluoropyridin-3-yl)benzenesulfonyl]-6-hydroxy-1-[(1S)-1-phenylpropyl]-1,4-dihydropyrimidin-4-one] |  | 0.01 to 10 nM
22 | CCCCc1nc(=O)c(S(=O)(=O)c2ccc(-c3cncc(F)c3)cc2)c(O)n1[C@@H](CC)c1ccccc1 [Example 290, 2-butyl-5-[4-(5-fluoropyridin-3-yl)benzenesulfonyl]-6-hydroxy-1-[(1S)-1-phenylpropyl]-1,4-dihydropyrimidin-4-one] |  | 0.01 to 10 nM
23 | CCCCc1nc(=O)c(S(=O)(=O)c2ccc(-c3ccncc3C)cc2)c(O)n1[C@@H](CC)c1ccccc1 [Example 291, 2-butyl-6-hydroxy-5-[4-(3-methylpyridin-4-yl)benzenesulfonyl]-1-[(1S)-1-phenylpropyl]-1,4-dihydropyrimidin-4-one] |  | 0.01 to 10 nM
